Read-outs that look alike come from different tables or passages of the source. Values belong to the molecule of their own block, whether it stands above or below them.
Legend:
[1] = Thermal stability / vacuum distillation; type: physicochemical; conditions: for thermal stability: higher temperature (>100° C.); for decomposition when subjected to vacuum distillation: oil-bath temperatures >100° C.
Experimental: The parent compound 1, trimethylamine-(ethylcarbamoyl)borane was prepared as previously described in B. F. Spielvogel et al., J. Am. Chem. Soc., 98 p. 5702 (1976) and I. H. Hall et al., J. Pharm. Sci., 68, p. 685 (1979) by refluxing (under dry N2) a solution of Me3 N.BH2 CN in CH2 Cl2 with 2 equivalents of triethyloxonium tetrafluoroborate for 24 hours. The compounds Me3 N.BH2 CN and triethyloxonium tetrafluoroborate are referred to in P. Wisian-Neilson et al., Inorg. Chem. 17, p. 2327 (1978) and H. Meerwein, Org. Synth., 46, p. 113 (1966), respectively. The resulting ethylnitrilium salt (not isolated) was hydrolyzed at 0° C. with 1N NaOH until basic and finally purified by vacuum distillation, giving a 75% yield. Dimethylamine-(ethylcarbamoyl)borane was made from 1 by a (CH3)2NH-exchange reaction in a pressure-glass vessel at room temperature for 8 days, and ca. 80% conversion (by ^1 H NMR) was obtained. Longer reaction periods (2-3 weeks) gave similar results. Amide 2 is readily purified by washing a CH2 Cl2 solution of the crude mixture with a small quantity of water whereby 1 is removed. The bulk CH2 Cl2 solution containing the product was dried, and rotary evaporation of the solvent gave 78% yield. Finally, the product was distilled under reduced pressure to get an analytical sample. […] The methylamine-(ethylcarbamoyl)borane and ammonia-(ethylcarbamoyl)borane were similarly prepared from 1 by exchange reactions with CH3 NH2 and NH3, respectively, in a glass pressure reaction vessel at room temperature for 1 week. The crude amide was purified by recrystallization from CH2 Cl2 /pentane, giving a 65% yield, whereas the ammonia analogue was recrystallized from distilled water, giving a 60% yield.

tumor = conditions: in mice; cited from earlier work
[2] = in mice; cited from earlier work
[3] = animal model studies; cited from earlier work
[4] = animal model studies; cited from earlier work; remark: listed apart in the source
Ehrlich ascites cells = assay: Ehrlich Ascites tumor screen for antineoplastic activity; type: in vivo; conditions: 20 mg/kg/day intraperitoneally, days 1-9; CF male mice; day 10
Experimental: Use of compounds according to this invention in Ehrlich Ascites tumor screens for antineoplastic activity has been investigated.
CF male mice (~25 g) were inoculated intraperitoneally on day 0 with 2×10^6 Ehrlich ascites cells. Compositions containing compounds of this invention were prepared in 0.05% polysorbate 80 by homogenation and injected intraperitoneally on days 1-9 at 20 mg/kg/day. On day 10, the mice were sacrificed and the cells from the peritoneal cavity harvested. The total ascites tumor and packed cell (ascrit) volumes were determined and used to calculate the percent inhibition according to the procedure described in C. Piantadosi et al., J. Pharm. Sci., 58, p. 821 (1969). […] Mercaptopurine and mephalan were used as positive controls in the screen. Other pharmaceutically acceptable carriers, diluents, adjuvants or dosages are readily ascertainable by the skilled artisan.

[5] = Tissue distribution study of boron (boron neutron capture therapy); type: in vivo, BALB/c mice; conditions: mouse, ip, 40 mg/kg, single saline i.p. injection, 40 μg boron per gram body weight; for concentration at 1 h: 1 hr post injection
Experimental: (§1) In a tissue distribution study relating to treatment of tumor tissue in an animal by boron neutron capture therapy, a representative compound of this invention MeNH2.BH2 C(O)NHEt was administered in a single saline intraperitoneal injection sufficient to provide 40 μg boron per gram body weight to BALB/c mice carrying Harding-Passey melanorna.

Harding-Passey melanorna = assay: as above; type: in vivo, BALB/c mice; conditions: for Boron uptake, blood / Boron uptake, brain / Boron uptake, tumor: single saline i.p. injection, 40 μg boron per gram body weight
Experimental: as §1

Toxicity in BALB/C mice = type: in vivo
[6] = 1 hr post injection, 40 mg/kg, 60 min

thermal stability [1]: thermally unstable
decomposition when subjected to vacuum distillation [1]: considerable decomposition
SMILES: CCNC(=O)[BH2-][N+](C)(C)C [Trimethylamine-(ethylcarbamoyl)borane, Trimethylamine-(Ethylcarbamoyl)borane]
antitumor activity (tumor): significant
antihyperlipidemic activity [2]: significant
antiinflammatory activity [3]: significant
antiarthritic activity [4]: significant

SMILES: CCNC(=O)[BH2-][NH2+]C [MeNH2.BH2 C(O)NHEt, Methylamine-(ethylcarbamoyl)borane]
percent inhibition (ascites tumor and packed cell volumes) (Ehrlich ascites cells): 91%
concentration at 1 h ([5]; blood, read-out: Boron uptake, blood): 54800 ng/g
concentration at 1 h ([5]; brain, read-out: Boron uptake, brain): 45300 ng/g
concentration at 1 h ([5]; tumor, read-out: Boron uptake, tumor): 51300 ng/g
concentration at 12 h ([5]; tumor, 12 hr post injection, read-out: Boron uptake, tumor): 3800 ng/g
Boron uptake, blood (Harding-Passey melanorna; [6]): 54.4 μg B per gram tissue
Boron uptake, brain (Harding-Passey melanorna; [6]): 39.8 μg B per gram tissue
Boron uptake, tumor (Harding-Passey melanorna; [6]): 48.7 μg B per gram tissue
Boron uptake, blood (Harding-Passey melanorna; 12 hr post injection): 0 μg B per gram tissue
Boron uptake, brain (Harding-Passey melanorna; 12 hr post injection): 0 μg B per gram tissue
Boron uptake, tumor (Harding-Passey melanorna; 12 hr post injection, 40 mg/kg, 720 min): 2.8 μg B per gram tissue
uptake for conventional therapy, measured against the standard in clinical use Na2 B12 H11 SH (Harding-Passey melanorna; in words): inadequate
concentration of the boron-containing compound in the tumor tissue (Harding-Passey melanorna; in words, BALB/c mice): some preferential differential concentration
toxicity (Toxicity in BALB/C mice): not toxic
solubility (Solubility): good

SMILES: C[N+](C)(C)[BH2-]C(=O)O [Me3 N.BH2 COOH]
antitumor activity (tumor): significant
antihyperlipidemic activity [2]: significant

thermal stability [1]: thermally unstable
decomposition when subjected to vacuum distillation [1]: considerable decomposition
SMILES: CCNC(=O)[BH2-][NH+](C)C [Me2 NH.BH2 C(O)NHEt, Dimethylamine-(Ethylcarbamoyl)borane]
percent inhibition (ascites tumor and packed cell volumes) (Ehrlich ascites cells): 72.2%
